Key:
Assay in all cases: cell-based
Parameters in all cases: Eurofins Cerep functional GPCR screen, antagonist mode, inhibition of control agonist response
Conditions in all cases: read-out: % Inhibition of Control Agonist Response, Mean
TSH = target: T1, TSH (Homo sapiens, UniProt P16473)
T1 construct: gene TSHR

CXCR1 = CXCR1 (Homo sapiens, UniProt P25024)
CRF1 = target: T2, CRF1 (Homo sapiens, UniProt P34998)
T2 construct: gene CRHR1

GABAB1b beta = target: T3, GABAB1b beta (Homo sapiens, UniProt Q9UBS5)
T3 construct: gene GABBR1; GABAB1b isoform

D1 = target: T4, D1 (Homo sapiens, UniProt P21728)
T4 construct: gene DRD1

α2C = target: T5, α2C (Homo sapiens, UniProt P18825)
T5 construct: gene ADRA2C

GAL1 = target: T6, GAL1 (Homo sapiens, UniProt P47211)
T6 construct: gene GALR1

FFA2 = target: T7, FFA2 (Homo sapiens, UniProt O15552)
T7 construct: gene FFAR2

CCR10 = CCR10 (Homo sapiens, UniProt P46092)
KiSS1 / GPR54 = target: T8, KiSS1 / GPR54 (Homo sapiens, UniProt Q969F8)
T8 construct: gene KISS1R

CT (Calcitonin) = target: T9, CT (Calcitonin) (Homo sapiens, UniProt P30988)
T9 construct: gene CALCR

GAL2 = target: T10, GAL2 (Homo sapiens, UniProt O43603)
T10 construct: gene GALR2

CaS = target: T11, CaS (Homo sapiens, UniProt P41180)
T11 construct: gene CASR

α1A = target: T12, α1A (Homo sapiens, UniProt P35348)
T12 construct: gene ADRA1A

CB2 = target: T13, CB2 (Homo sapiens, UniProt P34972)
T13 construct: gene CNR2

CCR2 = CCR2 (Homo sapiens, UniProt P41597)
GIP = target: T14, GIP (Homo sapiens, UniProt P48546)
T14 construct: gene GIPR

A2B = target: T15, A2B (Homo sapiens, UniProt P29275)
T15 construct: gene ADORA2B

CXCR4 = CXCR4 (Homo sapiens, UniProt P61073)
CB1 = target: T16, CB1 (Homo sapiens, UniProt P21554)
T16 construct: gene CNR1

α1B = target: T17, α1B (Homo sapiens, UniProt P35368)
T17 construct: gene ADRA1B

GPR39 = GPR39 (Homo sapiens, UniProt O43194)
BLT1 (LTB4) = target: T18, BLT1 (LTB4) (Homo sapiens, UniProt Q15722)
T18 construct: gene LTB4R

CCR3 = CCR3 (Homo sapiens, UniProt P51677)
TGR5 = target: T19, TGR5 (Homo sapiens, UniProt Q8TDU6)
T19 construct: gene GPBAR1

APJ (apelin) = target: T20, APJ (apelin) (Homo sapiens, UniProt P35414)
T20 construct: gene APLNR

T5 sequence (P18825 whole entry): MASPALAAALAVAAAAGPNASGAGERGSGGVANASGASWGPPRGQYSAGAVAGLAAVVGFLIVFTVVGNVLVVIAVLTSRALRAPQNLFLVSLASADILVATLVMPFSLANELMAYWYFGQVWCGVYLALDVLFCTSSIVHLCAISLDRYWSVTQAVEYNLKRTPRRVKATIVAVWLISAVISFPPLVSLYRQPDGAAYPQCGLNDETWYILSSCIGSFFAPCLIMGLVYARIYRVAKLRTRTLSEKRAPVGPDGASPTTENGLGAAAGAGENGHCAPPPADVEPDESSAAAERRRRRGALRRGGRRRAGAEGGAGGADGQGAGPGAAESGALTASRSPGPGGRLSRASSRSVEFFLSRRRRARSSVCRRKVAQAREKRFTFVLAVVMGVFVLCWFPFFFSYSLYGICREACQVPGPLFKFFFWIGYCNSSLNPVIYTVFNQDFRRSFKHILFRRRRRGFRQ
T3 sequence (Q9UBS5 whole entry, canonical isoform): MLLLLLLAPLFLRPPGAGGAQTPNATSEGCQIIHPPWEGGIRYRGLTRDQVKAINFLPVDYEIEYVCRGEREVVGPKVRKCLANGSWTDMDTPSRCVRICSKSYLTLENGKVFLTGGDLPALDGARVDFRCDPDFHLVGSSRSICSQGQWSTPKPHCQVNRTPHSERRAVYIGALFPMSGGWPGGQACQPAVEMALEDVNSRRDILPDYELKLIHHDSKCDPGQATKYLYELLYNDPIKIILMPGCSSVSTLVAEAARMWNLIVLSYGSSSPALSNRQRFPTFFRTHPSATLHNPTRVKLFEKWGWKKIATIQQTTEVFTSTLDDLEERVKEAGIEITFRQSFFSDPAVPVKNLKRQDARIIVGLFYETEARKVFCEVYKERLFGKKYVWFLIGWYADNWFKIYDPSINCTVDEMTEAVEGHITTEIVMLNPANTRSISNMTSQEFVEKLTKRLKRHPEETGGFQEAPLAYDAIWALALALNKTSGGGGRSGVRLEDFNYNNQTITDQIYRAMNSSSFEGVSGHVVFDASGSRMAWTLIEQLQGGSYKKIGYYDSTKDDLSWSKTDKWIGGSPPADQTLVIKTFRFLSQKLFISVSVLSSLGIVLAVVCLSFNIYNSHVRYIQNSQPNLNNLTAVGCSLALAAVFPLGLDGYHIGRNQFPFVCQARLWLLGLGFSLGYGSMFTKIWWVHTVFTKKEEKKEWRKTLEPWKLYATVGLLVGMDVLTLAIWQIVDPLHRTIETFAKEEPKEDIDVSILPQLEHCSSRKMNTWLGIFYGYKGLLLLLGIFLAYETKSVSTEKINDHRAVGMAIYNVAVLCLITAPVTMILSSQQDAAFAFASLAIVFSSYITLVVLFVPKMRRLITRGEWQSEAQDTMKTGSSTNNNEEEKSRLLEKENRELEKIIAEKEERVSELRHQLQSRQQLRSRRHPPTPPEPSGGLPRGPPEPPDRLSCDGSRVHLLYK
T3 sequence (O75899 whole entry partner, canonical isoform): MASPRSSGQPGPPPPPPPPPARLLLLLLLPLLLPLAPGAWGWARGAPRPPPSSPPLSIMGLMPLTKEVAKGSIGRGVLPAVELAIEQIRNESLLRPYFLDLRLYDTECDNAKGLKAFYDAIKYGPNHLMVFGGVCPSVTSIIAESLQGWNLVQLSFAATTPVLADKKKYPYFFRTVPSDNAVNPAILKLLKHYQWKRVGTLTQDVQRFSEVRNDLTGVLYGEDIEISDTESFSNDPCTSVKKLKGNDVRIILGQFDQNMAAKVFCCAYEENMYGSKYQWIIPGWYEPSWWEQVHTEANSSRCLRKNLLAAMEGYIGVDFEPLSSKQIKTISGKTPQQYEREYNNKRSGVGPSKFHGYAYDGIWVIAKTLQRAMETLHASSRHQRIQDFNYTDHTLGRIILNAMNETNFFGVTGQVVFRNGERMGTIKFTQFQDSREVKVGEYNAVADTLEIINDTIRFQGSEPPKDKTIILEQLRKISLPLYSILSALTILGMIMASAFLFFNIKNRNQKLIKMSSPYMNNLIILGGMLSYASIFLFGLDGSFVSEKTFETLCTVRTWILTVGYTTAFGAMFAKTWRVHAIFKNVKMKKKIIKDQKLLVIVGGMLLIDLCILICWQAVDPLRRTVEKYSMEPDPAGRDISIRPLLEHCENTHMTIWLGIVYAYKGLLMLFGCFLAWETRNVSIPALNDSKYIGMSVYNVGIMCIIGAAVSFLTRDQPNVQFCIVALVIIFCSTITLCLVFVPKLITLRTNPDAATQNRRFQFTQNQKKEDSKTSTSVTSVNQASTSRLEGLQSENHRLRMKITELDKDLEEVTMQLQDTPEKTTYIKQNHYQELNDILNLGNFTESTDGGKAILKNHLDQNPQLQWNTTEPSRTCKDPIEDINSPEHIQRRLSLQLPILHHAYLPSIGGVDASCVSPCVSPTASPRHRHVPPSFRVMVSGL
T13 sequence (P34972 whole entry): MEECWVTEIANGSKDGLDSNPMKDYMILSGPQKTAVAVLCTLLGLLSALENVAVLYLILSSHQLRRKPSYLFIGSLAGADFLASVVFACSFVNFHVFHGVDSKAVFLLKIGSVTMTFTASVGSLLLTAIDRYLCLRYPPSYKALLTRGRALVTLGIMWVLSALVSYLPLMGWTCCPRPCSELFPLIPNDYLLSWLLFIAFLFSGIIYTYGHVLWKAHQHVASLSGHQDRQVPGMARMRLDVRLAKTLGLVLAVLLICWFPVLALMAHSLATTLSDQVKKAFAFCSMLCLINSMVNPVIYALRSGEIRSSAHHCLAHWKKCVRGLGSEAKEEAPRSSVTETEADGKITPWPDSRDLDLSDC
T11 sequence (P41180 whole entry): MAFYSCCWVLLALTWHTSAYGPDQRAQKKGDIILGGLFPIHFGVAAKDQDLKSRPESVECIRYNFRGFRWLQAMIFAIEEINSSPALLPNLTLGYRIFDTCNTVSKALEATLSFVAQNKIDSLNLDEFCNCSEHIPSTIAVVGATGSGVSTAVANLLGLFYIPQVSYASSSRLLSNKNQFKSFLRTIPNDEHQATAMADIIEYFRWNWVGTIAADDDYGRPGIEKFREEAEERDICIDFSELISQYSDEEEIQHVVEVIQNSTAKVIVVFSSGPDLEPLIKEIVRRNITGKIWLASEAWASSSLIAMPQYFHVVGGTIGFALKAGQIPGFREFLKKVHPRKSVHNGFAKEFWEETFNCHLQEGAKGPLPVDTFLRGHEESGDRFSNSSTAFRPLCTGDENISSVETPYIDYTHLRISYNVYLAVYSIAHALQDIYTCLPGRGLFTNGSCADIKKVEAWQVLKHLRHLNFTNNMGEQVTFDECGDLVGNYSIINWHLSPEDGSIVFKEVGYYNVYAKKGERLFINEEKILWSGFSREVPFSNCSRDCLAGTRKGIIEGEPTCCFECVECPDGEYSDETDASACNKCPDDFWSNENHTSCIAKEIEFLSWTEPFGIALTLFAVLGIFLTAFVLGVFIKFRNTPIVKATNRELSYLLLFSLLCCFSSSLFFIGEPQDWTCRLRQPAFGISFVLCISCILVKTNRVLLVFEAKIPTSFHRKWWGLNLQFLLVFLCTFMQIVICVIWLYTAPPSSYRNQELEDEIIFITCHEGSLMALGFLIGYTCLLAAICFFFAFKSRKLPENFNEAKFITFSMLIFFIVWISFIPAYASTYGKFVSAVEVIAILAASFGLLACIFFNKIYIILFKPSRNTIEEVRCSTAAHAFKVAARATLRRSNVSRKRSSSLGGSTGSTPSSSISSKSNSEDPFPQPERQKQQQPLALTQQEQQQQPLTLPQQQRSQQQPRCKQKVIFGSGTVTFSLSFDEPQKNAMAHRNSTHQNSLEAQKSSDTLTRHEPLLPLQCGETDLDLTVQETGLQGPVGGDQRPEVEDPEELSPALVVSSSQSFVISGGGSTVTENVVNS
T17 sequence (P35368 whole entry): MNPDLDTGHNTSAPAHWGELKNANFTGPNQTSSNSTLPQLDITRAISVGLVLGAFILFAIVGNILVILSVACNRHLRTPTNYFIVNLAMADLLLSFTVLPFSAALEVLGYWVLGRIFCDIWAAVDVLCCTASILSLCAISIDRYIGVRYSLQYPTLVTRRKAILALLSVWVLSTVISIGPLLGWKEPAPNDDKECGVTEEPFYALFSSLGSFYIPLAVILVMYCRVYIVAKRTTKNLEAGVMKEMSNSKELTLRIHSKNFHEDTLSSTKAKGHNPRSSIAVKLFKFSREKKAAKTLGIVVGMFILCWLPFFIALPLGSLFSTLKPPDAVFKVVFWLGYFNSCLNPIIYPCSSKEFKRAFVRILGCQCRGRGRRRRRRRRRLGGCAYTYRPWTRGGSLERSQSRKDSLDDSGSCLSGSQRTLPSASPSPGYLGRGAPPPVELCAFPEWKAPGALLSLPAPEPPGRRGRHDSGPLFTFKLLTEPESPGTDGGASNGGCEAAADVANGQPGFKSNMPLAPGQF
T16 sequence (P21554 whole entry): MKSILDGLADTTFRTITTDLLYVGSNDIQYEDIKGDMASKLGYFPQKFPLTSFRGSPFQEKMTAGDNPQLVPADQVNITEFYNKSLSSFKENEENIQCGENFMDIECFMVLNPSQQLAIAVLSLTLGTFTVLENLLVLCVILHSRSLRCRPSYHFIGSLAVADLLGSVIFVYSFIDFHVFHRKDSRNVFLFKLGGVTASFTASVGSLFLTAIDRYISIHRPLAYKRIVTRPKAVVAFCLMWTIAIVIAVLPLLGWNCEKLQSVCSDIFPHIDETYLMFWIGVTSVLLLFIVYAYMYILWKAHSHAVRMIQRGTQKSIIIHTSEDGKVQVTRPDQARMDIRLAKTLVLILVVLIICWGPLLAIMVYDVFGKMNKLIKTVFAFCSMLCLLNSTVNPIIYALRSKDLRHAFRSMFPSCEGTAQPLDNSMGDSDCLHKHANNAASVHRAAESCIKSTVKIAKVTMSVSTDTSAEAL

## [O-][S@@+](Cc1cncs1)C(c1ccccc1)c1ccccc1 [S-CE-123, (S)-5-((Benzhydrylsulfinyl)Methyl)Thiazole]
TSH
  inhibition at 2.8 µM: -6.1%
CXCR1
  inhibition at 2.8 µM: -13%
CRF1
  inhibition at 2.8 µM: -16.9%
GABAB1b beta
  inhibition at 2.8 µM: -10.6%
D1
  inhibition at 2.8 µM: -5.6%
α2C
  inhibition at 2.8 µM: 0.3%
GAL1
  inhibition at 2.8 µM: 2.3%
FFA2
  inhibition at 2.8 µM: 2.9%
CCR10
  inhibition at 2.8 µM: -6.9%
KiSS1 / GPR54
  inhibition at 2.8 µM: -2.8%
CT (Calcitonin)
  inhibition at 2.8 µM: -21.7%
GAL2
  inhibition at 2.8 µM: -4.8%
CaS
  inhibition at 2.8 µM: -6.4%
α1A
  inhibition at 2.8 µM: 3.1%
CB2
  inhibition at 2.8 µM: 8.6%
CCR2
  inhibition at 2.8 µM: 2%
GIP
  inhibition at 2.8 µM: -6.6%
A2B
  inhibition at 2.8 µM: -11.8%
CXCR4
  inhibition at 2.8 µM: -40.7%
CB1
  inhibition at 2.8 µM: -2.1%
α1B
  inhibition at 2.8 µM: -15.1%
GPR39
  inhibition at 2.8 µM: 1.6%
BLT1 (LTB4)
  inhibition at 2.8 µM: -4.7%
CCR3
  inhibition at 2.8 µM: -10.7%
TGR5
  inhibition at 2.8 µM: -0.3%
APJ (apelin)
  inhibition at 2.8 µM: 6.2%
